Legend:
[1] = molecular target: 5-lipoxygenase (5-LOX); conditions: read-out: IC50 for the inhibition of 5-LOX; background, prior art; cited from earlier work
[2] = test system: Freund's Complete Adjuvant induced paw edema; experiment: Freund's Complete Adjuvant induced arthritis model, inhibition of paw edema; type: in vivo; conditions: 10 mg/kg body weight daily (positive control); FCA-induced Sprague Dawley rats; vs CMC control

| Compound | IC50 [1] [nM] | Reduction in Paw edema [2] [%] |
| --- | --- | --- |
| 3-O-Acetyl-11-keto-β-Boswellic acid [AKBA] | 1500 | – |
| C[C@]12C=CC(=O)C=C1CC[C@@H]1[C@@H]2[C@@H](O)C[C@@]2(C)[C@H]1CC[C@]2(O)C(=O)CO [Prednisolone] | – | 46 |

From US8551496B2, “Boswellia low polar gum resin extract and its synergistic compositions” (priority 2010, dated 2013)
